Key:
[1] = biological target: Tyrosine-protein kinase Fgr (Homo sapiens, UniProt P09769); settings: Compound concentration 100.0 nM
[2] = biological target: Mitogen-activated protein kinase kinase kinase kinase 1 (Homo sapiens) (UniProt Q92918); settings: Compound concentration 100.0 nM
[3] = biological target: Ephrin type-A receptor 8 (Homo sapiens) (UniProt P29322); settings: Compound concentration 100.0 nM
[4] = system: Tyrosine-protein kinase ABL1 (Homo sapiens), P00519 [F317I]; settings: Compound concentration 100.0 nM
[5] = biological target: Ephrin type-A receptor 3 (Homo sapiens) (UniProt P29320); settings: Compound concentration 100.0 nM
[6] = biological target: Tyrosine-protein kinase BTK (Homo sapiens) (UniProt Q06187); settings: Compound concentration 100.0 nM
[7] = biological target: Proto-oncogene tyrosine-protein kinase Src (Homo sapiens, UniProt P12931); settings: Compound concentration 100.0 nM
[8] = biological target: Ephrin type-A receptor 5 (Homo sapiens) (UniProt P54756); settings: Compound concentration 100.0 nM
[9] = biological target: Calcium/calmodulin-dependent protein kinase type II subunit delta (Homo sapiens) (UniProt Q13557); settings: Compound concentration 100.0 nM
[10] = biological target: Cyclin-dependent kinase 4 (Homo sapiens) (UniProt P11802); settings: Compound concentration 100.0 nM
[11] = biological target: 5-hydroxytryptamine receptor 2C (Homo sapiens) (UniProt P28335); settings: Compound concentration 10.0 uM
[12] = biological target: Dual specificity mitogen-activated protein kinase kinase 3 (Homo sapiens) (UniProt P46734); settings: Compound concentration 100.0 nM
[13] = biological target: Mitogen-activated protein kinase 14 (Homo sapiens) (UniProt Q16539); settings: Compound concentration 100.0 nM
[14] = biological target: Ribosomal protein S6 kinase alpha-6 (Homo sapiens) (UniProt Q9UK32); settings: Compound concentration 100.0 nM
[15] = biological target: Phosphatidylinositol 4-phosphate 5-kinase type-1 alpha (Homo sapiens) (UniProt Q99755); settings: Compound concentration 100.0 nM
[16] = biological target: Cyclin-dependent kinase 9 (Homo sapiens) (UniProt P50750); settings: Compound concentration 100.0 nM
[17] = system: ALK tyrosine kinase receptor (Homo sapiens), Q9UM73 [L1196M]; settings: Compound concentration 100.0 nM
[18] = biological target: Insulin receptor (Homo sapiens) (UniProt P06213); settings: Compound concentration 100.0 nM
[19] = biological target: Dual specificity tyrosine-phosphorylation-regulated kinase 1A (Homo sapiens) (UniProt Q13627); settings: Compound concentration 100.0 nM
[20] = biological target: Glycogen synthase kinase-3 alpha (Homo sapiens) (UniProt P49840); settings: Compound concentration 100.0 nM
[21] = biological target: Phosphatidylinositol 5-phosphate 4-kinase type-2 gamma (Homo sapiens) (UniProt Q8TBX8); settings: Compound concentration 100.0 nM
[22] = biological target: Dual specificity mitogen-activated protein kinase kinase 2 (Homo sapiens) (UniProt P36507); settings: Compound concentration 100.0 nM
[23] = biological target: Histamine H2 receptor (Homo sapiens) (UniProt P25021); settings: Compound concentration 10.0 uM
[24] = biological target: Serine/threonine-protein kinase ULK2 (Homo sapiens) (UniProt Q8IYT8); settings: Compound concentration 100.0 nM
[25] = biological target: Serine/threonine-protein kinase WNK3 (Homo sapiens) (UniProt Q9BYP7); settings: Compound concentration 100.0 nM
[26] = biological target: Mitogen-activated protein kinase kinase kinase 19 (Homo sapiens) (UniProt Q56UN5); settings: Compound concentration 100.0 nM
[27] = biological target: Serine/threonine-protein kinase BRSK1 (Homo sapiens) (UniProt Q8TDC3); settings: Compound concentration 100.0 nM
[28] = system: Mast/stem cell growth factor receptor Kit (Homo sapiens), P10721 [D816V]; settings: Compound concentration 100.0 nM
[29] = biological target: Serine/threonine-protein kinase pim-3 (Homo sapiens) (UniProt Q86V86); settings: Compound concentration 100.0 nM
[30] = system: Phosphatidylinositol 4,5-bisphosphate 3-kinase catalytic subunit alpha isoform (Homo sapiens), P42336 [E545K]; settings: Compound concentration 100.0 nM
[31] = system: Epidermal growth factor receptor (Homo sapiens), P00533 [T790M]; settings: Compound concentration 100.0 nM
[32] = biological target: Protein kinase C delta type (Homo sapiens) (UniProt Q05655); settings: Compound concentration 100.0 nM
[33] = biological target: Cyclin-dependent kinase-like 3 (Homo sapiens) (UniProt Q8IVW4); settings: Compound concentration 100.0 nM
[34] = biological target: 5'-AMP-activated protein kinase catalytic subunit alpha-1 (Homo sapiens) (UniProt Q13131); settings: Compound concentration 100.0 nM
[35] = biological target: Serine/threonine-protein kinase 10 (Homo sapiens) (UniProt O94804); settings: Compound concentration 100.0 nM
[36] = biological target: Proto-oncogene tyrosine-protein kinase ROS (Homo sapiens) (UniProt P08922); settings: Compound concentration 100.0 nM
[37] = biological target: Serine/threonine-protein kinase 24 (Homo sapiens) (UniProt Q9Y6E0); settings: Compound concentration 100.0 nM
[38] = biological target: Tyrosine-protein kinase Lck (Homo sapiens) (UniProt P06239); settings: Compound concentration 100.0 nM
[39] = biological target: Serine/threonine-protein kinase DCLK3 (Homo sapiens) (UniProt Q9C098); settings: Compound concentration 100.0 nM
[40] = biological target: Serine/threonine-protein kinase PAK 5 (Homo sapiens) (UniProt Q9P286); settings: Compound concentration 100.0 nM
[41] = biological target: Ephrin type-B receptor 3 (Homo sapiens) (UniProt P54753); settings: Compound concentration 100.0 nM
[42] = system: ALK tyrosine kinase receptor (Homo sapiens), Q9UM73 [C1156Y]; settings: Compound concentration 100.0 nM
[43] = biological target: Serine/threonine-protein kinase PRP4 homolog (Homo sapiens) (UniProt Q13523); settings: Compound concentration 100.0 nM
[44] = biological target: Serine/threonine-protein kinase Nek2 (Homo sapiens) (UniProt P51955); settings: Compound concentration 100.0 nM
[45] = biological target: Calcium/calmodulin-dependent protein kinase type 1D (Homo sapiens) (UniProt Q8IU85); settings: Compound concentration 100.0 nM
Chain of Calcium/calmodulin-dependent protein kinase type 1D (Homo sapiens) (Q8IU85 whole entry, looked up): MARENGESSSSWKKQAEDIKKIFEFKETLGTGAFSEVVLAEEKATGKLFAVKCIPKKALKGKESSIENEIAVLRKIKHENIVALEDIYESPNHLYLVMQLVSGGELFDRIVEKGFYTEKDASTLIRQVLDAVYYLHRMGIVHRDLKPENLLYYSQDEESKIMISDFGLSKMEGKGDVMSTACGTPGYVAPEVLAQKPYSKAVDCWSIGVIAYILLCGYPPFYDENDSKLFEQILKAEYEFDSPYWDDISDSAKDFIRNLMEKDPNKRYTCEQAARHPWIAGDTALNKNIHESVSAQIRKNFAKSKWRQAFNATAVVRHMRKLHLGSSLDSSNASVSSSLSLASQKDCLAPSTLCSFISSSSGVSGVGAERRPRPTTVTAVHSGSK

Chain of Serine/threonine-protein kinase ULK2 (Homo sapiens) (Q8IYT8 whole entry): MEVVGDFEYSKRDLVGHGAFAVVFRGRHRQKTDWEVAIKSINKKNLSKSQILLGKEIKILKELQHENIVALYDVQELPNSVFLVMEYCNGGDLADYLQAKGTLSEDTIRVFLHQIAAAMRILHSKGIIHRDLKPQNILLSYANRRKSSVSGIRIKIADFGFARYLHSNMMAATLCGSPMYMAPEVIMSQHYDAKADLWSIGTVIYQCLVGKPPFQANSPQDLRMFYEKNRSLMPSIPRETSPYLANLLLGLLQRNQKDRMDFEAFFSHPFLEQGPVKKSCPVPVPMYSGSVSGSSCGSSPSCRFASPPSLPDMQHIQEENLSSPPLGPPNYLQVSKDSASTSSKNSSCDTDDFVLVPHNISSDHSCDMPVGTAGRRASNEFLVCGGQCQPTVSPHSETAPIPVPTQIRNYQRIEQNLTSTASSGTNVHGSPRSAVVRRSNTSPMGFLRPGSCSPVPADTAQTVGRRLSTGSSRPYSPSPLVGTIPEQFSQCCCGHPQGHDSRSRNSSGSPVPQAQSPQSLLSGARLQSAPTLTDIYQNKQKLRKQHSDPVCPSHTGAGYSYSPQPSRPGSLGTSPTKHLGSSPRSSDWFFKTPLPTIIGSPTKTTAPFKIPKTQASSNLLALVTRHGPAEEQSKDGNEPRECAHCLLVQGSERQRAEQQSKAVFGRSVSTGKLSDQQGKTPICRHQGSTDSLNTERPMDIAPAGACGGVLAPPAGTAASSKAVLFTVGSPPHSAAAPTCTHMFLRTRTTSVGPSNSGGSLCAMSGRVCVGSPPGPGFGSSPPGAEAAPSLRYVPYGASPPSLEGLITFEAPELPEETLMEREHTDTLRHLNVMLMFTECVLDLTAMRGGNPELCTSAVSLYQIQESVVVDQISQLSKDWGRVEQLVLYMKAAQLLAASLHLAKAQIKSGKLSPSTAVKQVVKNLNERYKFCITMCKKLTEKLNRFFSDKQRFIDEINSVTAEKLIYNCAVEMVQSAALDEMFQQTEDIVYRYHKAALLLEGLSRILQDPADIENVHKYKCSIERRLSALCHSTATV
Chain of Mitogen-activated protein kinase kinase kinase 19 (Homo sapiens) (Q56UN5 whole entry): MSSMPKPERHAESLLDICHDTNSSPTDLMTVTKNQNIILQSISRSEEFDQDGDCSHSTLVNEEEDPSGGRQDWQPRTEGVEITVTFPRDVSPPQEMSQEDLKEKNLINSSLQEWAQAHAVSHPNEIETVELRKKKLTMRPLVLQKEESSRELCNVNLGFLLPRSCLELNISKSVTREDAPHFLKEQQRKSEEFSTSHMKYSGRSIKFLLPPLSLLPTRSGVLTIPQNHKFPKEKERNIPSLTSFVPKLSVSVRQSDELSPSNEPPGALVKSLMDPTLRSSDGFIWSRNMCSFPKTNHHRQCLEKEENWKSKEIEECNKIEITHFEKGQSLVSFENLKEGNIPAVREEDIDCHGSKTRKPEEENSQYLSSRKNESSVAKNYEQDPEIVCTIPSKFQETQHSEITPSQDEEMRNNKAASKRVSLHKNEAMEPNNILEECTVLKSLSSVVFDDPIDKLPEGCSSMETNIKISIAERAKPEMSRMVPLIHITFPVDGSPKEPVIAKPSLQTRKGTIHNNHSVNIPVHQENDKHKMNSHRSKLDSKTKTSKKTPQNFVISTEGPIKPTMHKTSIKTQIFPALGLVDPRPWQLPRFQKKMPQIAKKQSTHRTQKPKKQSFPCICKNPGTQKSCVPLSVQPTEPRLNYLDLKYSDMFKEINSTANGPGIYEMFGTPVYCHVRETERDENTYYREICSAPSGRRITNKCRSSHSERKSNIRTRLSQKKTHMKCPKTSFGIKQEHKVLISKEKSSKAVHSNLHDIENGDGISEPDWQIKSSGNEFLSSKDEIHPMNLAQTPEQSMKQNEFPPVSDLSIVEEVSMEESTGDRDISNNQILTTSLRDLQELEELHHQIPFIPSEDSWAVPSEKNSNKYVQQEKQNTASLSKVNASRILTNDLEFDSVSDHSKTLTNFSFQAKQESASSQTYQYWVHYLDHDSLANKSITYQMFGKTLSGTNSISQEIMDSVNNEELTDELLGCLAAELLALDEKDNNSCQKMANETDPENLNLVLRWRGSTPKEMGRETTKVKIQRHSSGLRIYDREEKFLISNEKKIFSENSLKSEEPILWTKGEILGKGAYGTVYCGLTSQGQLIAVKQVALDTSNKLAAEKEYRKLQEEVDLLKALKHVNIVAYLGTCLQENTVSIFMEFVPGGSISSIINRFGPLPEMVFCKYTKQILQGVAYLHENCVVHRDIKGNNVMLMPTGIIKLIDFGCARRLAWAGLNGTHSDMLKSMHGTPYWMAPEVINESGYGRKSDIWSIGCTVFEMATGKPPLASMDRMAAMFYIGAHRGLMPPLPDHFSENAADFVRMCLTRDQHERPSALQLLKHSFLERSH
Chain of Phosphatidylinositol 4-phosphate 5-kinase type-1 alpha (Homo sapiens) (Q99755 whole entry): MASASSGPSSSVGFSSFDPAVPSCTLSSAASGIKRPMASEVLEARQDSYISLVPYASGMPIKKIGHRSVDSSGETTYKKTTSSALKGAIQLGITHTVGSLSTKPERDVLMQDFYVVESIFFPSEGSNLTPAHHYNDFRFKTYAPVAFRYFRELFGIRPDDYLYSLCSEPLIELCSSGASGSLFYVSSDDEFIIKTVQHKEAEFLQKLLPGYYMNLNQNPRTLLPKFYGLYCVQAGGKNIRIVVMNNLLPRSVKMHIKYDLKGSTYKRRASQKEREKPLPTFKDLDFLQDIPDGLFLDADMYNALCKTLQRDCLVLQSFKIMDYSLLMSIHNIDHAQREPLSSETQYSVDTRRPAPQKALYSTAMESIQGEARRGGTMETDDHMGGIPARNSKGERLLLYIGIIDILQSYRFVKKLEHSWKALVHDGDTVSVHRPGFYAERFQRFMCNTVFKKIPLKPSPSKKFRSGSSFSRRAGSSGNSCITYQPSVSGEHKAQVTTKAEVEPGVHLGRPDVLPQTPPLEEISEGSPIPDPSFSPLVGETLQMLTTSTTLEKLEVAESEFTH
Chain of Insulin receptor (Homo sapiens) (P06213 28-758 limits assumed): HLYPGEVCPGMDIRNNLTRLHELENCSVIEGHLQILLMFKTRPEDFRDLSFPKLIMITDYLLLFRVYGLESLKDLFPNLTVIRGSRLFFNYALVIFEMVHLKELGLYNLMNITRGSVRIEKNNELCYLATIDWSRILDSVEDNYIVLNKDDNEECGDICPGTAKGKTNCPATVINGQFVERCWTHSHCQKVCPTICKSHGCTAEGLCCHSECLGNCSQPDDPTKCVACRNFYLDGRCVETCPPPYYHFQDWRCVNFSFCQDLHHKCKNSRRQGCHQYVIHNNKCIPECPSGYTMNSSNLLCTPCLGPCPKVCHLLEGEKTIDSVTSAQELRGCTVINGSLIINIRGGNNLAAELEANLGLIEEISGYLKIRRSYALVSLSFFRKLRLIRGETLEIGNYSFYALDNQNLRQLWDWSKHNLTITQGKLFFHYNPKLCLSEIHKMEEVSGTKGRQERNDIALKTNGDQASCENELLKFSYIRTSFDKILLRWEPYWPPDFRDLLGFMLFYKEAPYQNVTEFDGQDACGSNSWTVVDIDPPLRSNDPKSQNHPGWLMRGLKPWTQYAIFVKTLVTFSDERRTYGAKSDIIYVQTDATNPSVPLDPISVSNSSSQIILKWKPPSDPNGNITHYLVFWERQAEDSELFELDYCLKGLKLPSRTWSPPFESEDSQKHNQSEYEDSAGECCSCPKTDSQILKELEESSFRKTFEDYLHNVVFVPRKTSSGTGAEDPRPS
Chain of Insulin receptor (Homo sapiens) (P06213 763-1382 limits assumed): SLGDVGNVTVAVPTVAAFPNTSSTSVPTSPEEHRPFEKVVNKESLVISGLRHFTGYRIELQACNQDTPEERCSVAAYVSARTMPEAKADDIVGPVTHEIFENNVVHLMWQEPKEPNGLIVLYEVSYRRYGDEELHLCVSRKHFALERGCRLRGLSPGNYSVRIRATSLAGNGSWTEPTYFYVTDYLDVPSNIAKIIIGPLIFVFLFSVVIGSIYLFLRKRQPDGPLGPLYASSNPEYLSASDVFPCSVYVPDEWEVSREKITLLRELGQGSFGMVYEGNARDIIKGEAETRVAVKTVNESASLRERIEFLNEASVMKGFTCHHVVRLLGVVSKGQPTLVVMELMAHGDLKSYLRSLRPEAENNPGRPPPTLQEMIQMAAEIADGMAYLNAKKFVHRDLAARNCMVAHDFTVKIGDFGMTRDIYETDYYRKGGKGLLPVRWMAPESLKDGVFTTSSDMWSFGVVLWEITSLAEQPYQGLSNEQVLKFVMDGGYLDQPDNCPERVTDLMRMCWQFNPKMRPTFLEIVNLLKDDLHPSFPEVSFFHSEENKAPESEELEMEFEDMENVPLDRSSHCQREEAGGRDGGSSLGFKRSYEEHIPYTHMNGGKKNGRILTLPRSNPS

Compound: Cc1ccc(-c2cnc([C@@]3(O)CC[C@H](C(=O)O)C(C)(C)C3)s2)cc1Nc1cccc(C(F)(F)F)n1 [MRL-SYKi-NC]
- residual activity [1]: 100%
- residual activity [2]: 100%
- residual activity [3]: 88.9%
- residual activity [4]: 80.1%
- residual activity [5]: 93.7%
- residual activity [6]: 86.1%
- residual activity [7]: 100%
- residual activity [8]: 100%
- residual activity [9]: 87.2%
- residual activity [10]: 93.4%
- inhibition [11]: 4.21%
- residual activity [12]: 90%
- residual activity [13]: 97%
- residual activity [14]: 100%
- residual activity [15]: 93%
- residual activity [16]: 100%
- residual activity [17]: 100%
- residual activity [18]: 78.7%
- residual activity [19]: 81.4%
- residual activity [20]: 86.8%
- residual activity [21]: 97.5%
- residual activity [22]: 87%
- inhibition [23]: 8.65%
- residual activity [24]: 76%
- residual activity [25]: 0%
- residual activity [26]: 100%
- residual activity [27]: 100%
- residual activity [28]: 100%
- residual activity [29]: 89.2%
- residual activity [30]: 97.7%
- residual activity [31]: 77.8%
- residual activity [32]: 89%
- residual activity [33]: 100%
- residual activity [34]: 77.6%
- residual activity [35]: 74.5%
- residual activity [36]: 91.5%
- residual activity [37]: 100%
- residual activity [38]: 100%
- residual activity [39]: 76.2%
- residual activity [40]: 96%
- residual activity [41]: 100%
- residual activity [42]: 100%
- residual activity [43]: 82.6%
- residual activity [44]: 100%
- residual activity [45]: 89.6%

Compound: Cc1cc(Nc2nccc(C)n2)cc(-c2cnc([C@@]3(O)CC[C@H](C(=O)O)C(C)(C)C3)s2)c1 [MRL-SYKi]
- residual activity [1]: 100%
- residual activity [2]: 100%
- residual activity [3]: 100%
- residual activity [4]: 100%
- residual activity [5]: 100%
- residual activity [6]: 81.5%
- residual activity [7]: 53.7%
- residual activity [8]: 94%
- residual activity [9]: 84.6%
- residual activity [10]: 100%
- inhibition [11]: 3.02%
- residual activity [12]: 29.5%
- residual activity [13]: 100%
- residual activity [14]: 77.2%
- residual activity [15]: 100%
- residual activity [16]: 100%
- residual activity [17]: 100%
- residual activity [18]: 100%
- residual activity [19]: 100%
- residual activity [20]: 100%
- residual activity [21]: 91.9%
- residual activity [22]: 89.4%
- inhibition [23]: 3.06%
- residual activity [24]: 100%
- residual activity [25]: 100%
- residual activity [26]: 100%
- residual activity [27]: 100%
- residual activity [28]: 100%
- residual activity [29]: 100%
- residual activity [30]: 68.3%
- residual activity [31]: 91.6%
- residual activity [32]: 83.7%
- residual activity [33]: 100%
- residual activity [34]: 100%
- residual activity [35]: 100%
- residual activity [36]: 97%
- residual activity [37]: 83.5%
- residual activity [38]: 73%
- residual activity [39]: 97.3%
- residual activity [40]: 100%
- residual activity [41]: 100%
- residual activity [42]: 100%
- residual activity [43]: 90.3%
- residual activity [44]: 100%
- residual activity [45]: 97.1%

Reference: ChEMBL document CHEMBL4507285, “Data for DCP probe MRL-SYKi” (2021)
